These results are taken from publication PMC5236087, “A Generic Multi-Compartmental CNS Distribution Model Structure for 9 Drugs Allows Prediction of Human Brain Target Site Concentrations” (Pharmaceutical Research, 2016).

Series [1] can be described thus: Multi-compartmental brain PK model fitted to rat plasma and microdialysis (brainECF, CSF) data. The class given is in vivo. The conditions noted are these: parameter estimate (RSE, %); for clearance: male, Wistar, plasma, intravenous infusion, read-out: CLPL, clearance from the central compartment. The method, then: An overview of experimental data for nine compounds with different physicochemical characteristics used for model development is provided in Table I. The physicochemical characteristics of the nine compounds are provided in Table SI.
Animal study protocols were approved by the Animal Ethics Committee of Leiden University and all animal experiments were performed in accordance with the Dutch Law of Animal Experimentation (for approval numbers see Table SII). […] Between surgery and experiments, the animals were kept individually in Makrolon type three cages for 7 days to recover from surgical procedures.
Rats were anesthetized (5% isoflurane for induction, 1–2% as maintenance), and subsequently received cannulas in the femoral artery for serial blood sampling, and in the femoral vein for drug administration, respectively. Subsequently, microdialysis guides were inserted into different brain locations. The animals were allowed to recover for 1 week before the experiments were performed. One day before the experiment, the microdialysis dummies were replaced by microdialysis probes. For details on guides, probes and locations see Table SII.
Experiments generally started at 9:00 a.m. to minimize the influence of circadian rhythms. Microdialysis probes were continuously flushed with microdialysis perfusion fluid (PF) until equilibration before the start of drug administration. Drugs were administered at t = 0 h by intravenous infusion through the cannula implanted in the femoral vein. […] The general procedure of microdialysis is depicted in Fig. 1.
Separate models describing plasma and brain concentration-time profiles for all nine compounds were developed whereby plasma- and brain-related parameters were estimated simultaneously. A naïve pooling approach was used ([37]), i.e. inter-individual variability in each compound’s data was not quantified, because of the highly standardized experimental settings combined with the homogeneous nature of the animals within each study.
The structural model that was used as a starting point was based on our previously developed models ([23]–[25]).
First, a combined drug dispersion parameter was estimated to capture the CSF and ECF flow and turbulence flow of the drug molecules ([38],[39]).
Second, drug transfer across the BCSFB was excluded.
We evaluated for each drug the validity of the changes to the basic model with regard to a single or two different flow rates for drug dispersion and drug transport at the BCSFB.

On the set-up of series [2]: method as in DrugBank (http://www.drugbank.ca/); PSA: unit not given beside the values. To be noted: ref DrugBank (http://www.drugbank.ca/), cited from earlier work.
For series [3] the following is noted: cited from earlier work; for fP (%), free fraction in plasma: rat data; for plasma protein binding (% bound): used to calculate free fraction in plasma.
Details of series [4]: method as in PMID 4150300. The conditions noted are these: human; cited from earlier work.
In series [5] the test system is MRPs, OATs and OATPs. The series can be described thus: Effect of co-administered probenecid on drug exchange at the BBB and BCSFB. To be noted: rat. The class given is in vivo.
A short description of series [6]: Fraction unbound in plasma (rat data). Type of series: in vitro ADME. To be noted: rat pooled plasma, ultrafiltration; read-out: fP (%), free fraction in plasma.
Description: To determine the free fraction of paliperidone and risperidone in plasma samples, Centrifree Ultrafiltration Devices from Merck Millipore (Amsterdam, The Netherlands) were used to separate the free from the protein bound risperidone and paliperidone in pooled plasma samples. Both the ultrafiltrate and the original pooled plasma sample (without ultrafiltration step) were measured. The free fraction was calculated according to the following Eq. 1:1 Freefraction=Ultrafiltrateconcentration/Pooledplasmaconcentration
In series [7] the test system is P-gp. The conditions noted are these: rat; for Impact of active transport on QPL_ECF (covariate effect of inhibitor): with GF120918 or tariquidar, estimate (RSE, %).
[8] abbreviates: with probenecid, estimate (RSE, %).

The structures appear in SMILES notation. Read-outs that look alike come from different tables or passages of the source. Marks after values point to notes of the source that are not given here.

On to `CC(=O)Nc1ccc(O)cc1` [Acetaminophen], for which, in series [1], the “QDIFF, drug dispersion rate in brain and CSF” value (“QDIFF, drug dispersion rate” for short) was 0.0556 (10.3) mL/min; the “VPER1, distribution volume of the peripheral compartment 1” value (from here on “VPER1, distribution volume”) is reported as 219 (8.90) mL; the “VPL, distribution volume of the central compartment” value (shortened to “VPL, distribution volume”) was 65.7 (25.4) mL; the “fraction; percentage of the drug which is reabsorbed by enterohepatic circulation” value was 93.3(1.20) %. Besides, in series [2], the “log D (pH 7.4)” value is 0.5, the “No. of H acceptors” value is recorded as 2, the “No. of H donors” value was 2 and the PSA is 49. For the same molecule, in series [2], the “pKa (Base)” value is -4.4. The “fP (%), free fraction in plasma” value in series [3] (ref Westerhout, 2011) is 81%. For the same molecule, the “fp, free fraction in plasma” value in series [4] is reported as 85%.

As for `CC(C)NCC(O)COc1ccc(CC(N)=O)cc1` (stereo not drawn) [Atenolol], in series [2], the “No. of H acceptors” value is reported as 4 and the “No. of H donors” value was 3.

As for `CN(Cc1cnc2nc(N)nc(N)c2n1)c1ccc(C(=O)N[C@@H](CCC(=O)O)C(=O)O)cc1` [Methotrexate], in series [1], the clearance was 8.12 mL/min; the “QDIFF, drug dispersion rate” value is 0.0598 (9.30) mL/min; the “VPER1, distribution volume” value is listed as 210 (7.20) mL; the “VPER2, distribution volume of the peripheral compartment 2” value was 114 (6.60) mL. In addition, in series [1], the “VPL, distribution volume” value is on record as 51.2 (20.3) mL. Moreover, in series [1] (listed as methotrexate), the “QDIFF, drug dispersion rate” value is reported as 0.0598 mL/min. Also, in series [5], the “increase of QPL_ECF in the presence of the inhibitor of MRPs, OATs and OATPs” value is on record as 409%. Moreover, in series [5] (setting [8]), the “Impact of active transport on QLV_PL (covariate effect of inhibitor)” value is 0.410 (16.0)^a and the “Impact of active transport on QPL_ECF (covariate effect of inhibitor)” value is 4.09 (3.7)^a. In series [2], the “log D (pH 7.4)” value is -2.5, the “No. of H acceptors” value was 12, the “No. of H donors” value was 5 and the PSA is recorded as 211. In series [2], the “pKa (Acid)” value was 3.4 and the “pKa (Base)” value was 2.8. In addition, the “fP (%), free fraction in plasma” value in series [3] (ref Westerhout, 2014) is given as 45%.

For `CN1CC[C@]23c4c5ccc(O)c4O[C@H]2[C@@H](O)C=C[C@H]3[C@H]1C5` [Morphine], in series [2], the “No. of H acceptors” value is on record as 4 and the “No. of H donors” value is reported as 2.

The term log P denotes the decadic logarithm of the partition coefficient of the neutral form, usually between octanol and water. `Cc1nc2n(c(=O)c1CCN1CCC(c3noc4cc(F)ccc34)CC1)CCCC2O` (stereo not drawn) [Paliperidone]: in series [1], the clearance is 192 mL/min; the “QDIFF, drug dispersion rate” value is listed as 0.0248 (10.7) mL/min; the “VPL, distribution volume” value is listed as 28400 (8.00) mL. Also, the fraction unbound in series [6] is 0.08. In series [7], the “increase of QPL_ECF in the presence of P-gp inhibitors” value (“increase … of P-gp inhibitors” below) is listed as 43.4% and the “Impact of active transport on QPL_ECF (covariate effect of inhibitor)” value is 0.434 (11.4)^b. Also, in series [2], the “log D (pH 7.4)” value is given as 2.1, the “No. of H acceptors” value is reported as 5, the “No. of H donors” value is 1 and the PSA is reported as 82. In series [2], the lipophilicity (log P) is listed as 1.8 and the “pKa (Base)” value was 8.8.

Take `O=C1NC(=O)C(c2ccccc2)(c2ccccc2)N1` [Phenytoin]: in series [1], the clearance is 44.7 mL/min; the “QDIFF, drug dispersion rate” value is on record as 0.0133 (13.0) mL/min; the “VPER1, distribution volume” value is reported as 5320 (7.80) mL; the “VPL, distribution volume” value was 2890 (7.90) mL. The “QDIFF, drug dispersion rate” value in series [1] (listed as phenytoin) was 0.0133 mL/min. Also, in series [7], the “increase … of P-gp inhibitors” value is reported as 35.5% and the “Impact of active transport on QPL_ECF (covariate effect of inhibitor)” value is given as 0.355 (25.1)^b. In addition, in series [2], the “No. of H acceptors” value is reported as 2, the “No. of H donors” value was 2 and the PSA was 58. For the same molecule, the “plasma protein binding (% bound)” value in series [3] was 91%.

As for `C=C[C@H]1C[N@@]2CC[C@H]1C[C@@H]2[C@@H](O)c1ccnc2ccc(OC)cc12` [Quinidine], in series [1], the “QDIFF, drug dispersion rate” value is given as 0.0237 (2.40) mL/min. Moreover, in series [7], the “increase … of P-gp inhibitors” value is 443% and the “Impact of active transport on QPL_ECF (covariate effect of inhibitor)” value is on record as 4.43 (2.80)^b. Also, in series [2], the “No. of H acceptors” value was 4, the “No. of H donors” value is listed as 1 and the PSA is listed as 46. Moreover, the “fP (%), free fraction in plasma” value in series [3] (ref Westerhout, 2013) is recorded as 14%.

On to `CCN1CCC[C@H]1CNC(=O)c1c(OC)ccc(Br)c1OC` [Remoxipride], for which, in series [2], the “log D (pH 7.4)” value is on record as 0.7, the “No. of H acceptors” value is reported as 4, the “No. of H donors” value was 1 and the PSA is on record as 51. Moreover, in series [2], the “log P” value is given as 2.1, the “pKa (Acid)” value is reported as 13.1 and the “pKa (Base)” value is 8.4. Besides, the “fP (%), free fraction in plasma” value in series [3] (ref Widman, 1993) is reported as 74%. Besides, the “plasma protein binding (% bound)” value in series [3] is recorded as 26%.

Regarding `Cc1nc2n(c(=O)c1CCN1CCC(c3noc4cc(F)ccc34)CC1)CCCC2` [Risperidone], the clearance in series [1] is 465 mL/min. Besides, in series [6], the fraction unbound was 0.07. Moreover, in series [2], the “No. of H acceptors” value is reported as 4, the “No. of H donors” value was 0 and the PSA was 62.
